Results on two compounds are retold here after article PMC5658702, “Lysine acetylome profiling uncovers novel histone deacetylase substrate proteins in Arabidopsis” (Molecular Systems Biology, 2017).

Holding throughout (type): biochemical
Experiment [1] deals with T1, RCA-β1 (RCAβ1; 6x-HisRCAβ1) (Arabidopsis thaliana, UniProt F4IVZ7, K438R).
T1 construct: N-terminal 6xHis tag, pCDFDuet-1, E. coli Rosetta-gami
T1 sequence (F4IVZ7 59-441 K438R): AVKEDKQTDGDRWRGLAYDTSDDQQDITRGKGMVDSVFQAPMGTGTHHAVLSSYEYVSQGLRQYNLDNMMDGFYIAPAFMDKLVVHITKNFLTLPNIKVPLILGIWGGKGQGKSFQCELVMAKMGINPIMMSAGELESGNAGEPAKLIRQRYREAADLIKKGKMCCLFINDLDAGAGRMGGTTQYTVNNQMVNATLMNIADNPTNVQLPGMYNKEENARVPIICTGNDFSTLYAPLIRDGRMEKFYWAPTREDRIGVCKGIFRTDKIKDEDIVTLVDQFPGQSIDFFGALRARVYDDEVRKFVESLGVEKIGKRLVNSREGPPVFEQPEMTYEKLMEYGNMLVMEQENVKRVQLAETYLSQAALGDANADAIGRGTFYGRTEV
Nature of the experiment: ATPase activity, KinaseGlo Max luminescent ATP consumption assay. To be noted: read-out: % inhibition at 55 uM ADP. In general terms: In Kinase-Glo more light means more ATP remaining.

For experiment [2], the target named is T2, RCA-β1 (RCAβ1; 6x-HisRCAβ1) (Arabidopsis thaliana, UniProt F4IVZ7, K438Q).
T2 construct: N-terminal 6xHis tag, pCDFDuet-1, E. coli Rosetta-gami
T2 sequence (F4IVZ7 59-441 K438Q): T1 sequence (F4IVZ7 59-441 K438R) with R380Q
The description is as above. Conditions: read-out: % inhibition at 55 uM ADP.

In experiment [3] the target is T3, RCA-β1 (RCAβ1; 6x-HisRCAβ1) (Arabidopsis thaliana, UniProt F4IVZ7).
T3 construct: N-terminal 6xHis tag, pCDFDuet-1, E. coli Rosetta-gami
T3 sequence (F4IVZ7 59-441): T1 sequence (F4IVZ7 59-441 K438R) with R380K
Described as above. Conditions: read-out: % inhibition at 55 uM ADP.

Experiment [4] deals with T4, HDA14 (6xHis-HDA14) (Arabidopsis thaliana, UniProt Q941D6).
T4 construct: lacks first 45 aa (predicted signal peptide); N-terminal 6xHis tag (pEXP-5-NT/TOPO); E. coli BL21(DE3); apoenzyme reloaded with Zn2+ or Co2+
T4 sequence (Q941D6 46-423): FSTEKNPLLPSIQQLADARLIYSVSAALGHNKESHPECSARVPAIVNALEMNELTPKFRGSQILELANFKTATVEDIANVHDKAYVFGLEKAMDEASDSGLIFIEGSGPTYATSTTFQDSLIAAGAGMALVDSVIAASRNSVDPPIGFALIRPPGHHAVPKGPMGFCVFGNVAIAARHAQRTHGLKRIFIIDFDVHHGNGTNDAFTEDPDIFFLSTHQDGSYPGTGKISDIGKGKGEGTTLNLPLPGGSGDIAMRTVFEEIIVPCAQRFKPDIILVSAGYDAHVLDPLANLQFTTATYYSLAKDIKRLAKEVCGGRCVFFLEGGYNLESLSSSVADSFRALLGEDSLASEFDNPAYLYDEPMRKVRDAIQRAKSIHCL
Nature of the experiment: colorimetric deacetylase assay, acetylated p53 peptide p53-5,2-ANB, trypsin-coupled, […] nm.

Substitutions are numbered along the chain they refer to.

For the compound `Nc1ncnc2c1ncn2[C@@H]1O[C@H](COP(=O)(O)OP(=O)(O)O)[C@@H](O)[C@H]1O` [ADP], the inhibition at 55 µM is around 30% in experiment [1], around 8% in experiment [2] and around 19% in experiment [3].

For the compound `CC(/C=C/C(=O)NO)=C\[C@@H](C)C(=O)c1ccc(N(C)C)cc1` [trichostatin A], in experiment [4], the inhibition at 5 µM came to 80%.

Broadly, the inhibition is the percentage by which the read-out fell short of the control.
